Measured values taken from patent US11390590B2, “Methods and processes for the preparation of KDM1A inhibitors” (Imago Biosciences, Inc., priority 2016, dated 2022).
≈ marks a conversion by molar mass, not a printed value. Structures can show the parent of a compound that is named as a salt.

Legend:
Type in all cases: physicochemical
[1] = Exploration of solubility: 300 mg slurry in solvent (10 V) at 15~20° C.; settings: for solubility: 15 °C, organic solvent or mixture, thermodynamic from solid; for solubility / Solubility (mg/mL): 300 mg slurry at 15~20° C.
Text: Exploration of Step 3: Amide Formation. Exploration of Product Solubility.
Exploration of the Solubility of 4 in Various Solvents.

[2] = Exploration of product stability in alkaline conditions; settings: for Assay: 15~25° C.
Text: Exploration of Product Stability in Alkaline Conditions.

[3] = Exploration of solvent for filtration: 5a slurry in solvent; settings: 500 mg slurry, HCl (EtOH) charged, 15˜25° C. for 20 h
Method: Exploration of Solvent for Filtration.
Experiments were performed 15˜25° C. for 20 h.

`CN1CCN(C(=O)[C@H](CCC(=O)O)NC(=O)c2ccc(-n3ccnn3)cc2)CC1` [Compound 4, (4S)-4-[4-(1H-1,2,3-triazol-1-yl)benzoylamino]-5-(4-methylpiperazin-1-yl)-5-oxopentanoic Acid] gave a solubility ([1]; Acetonitrile (10 V)) of 400 µg/mL (≈ 0.999 mM), a solubility ([1]; DCM (10 V)) of 1000 µg/mL (≈ 2.5 mM) and a solubility ([1]; EtOAc (10 V)) of 400 µg/mL (≈ 0.999 mM). The solubility ([1]; EtOH (10 V)) was 4000 µg/mL (≈ 9.99 mM), the solubility ([1]; IPA (10 V)) was 900 µg/mL (≈ 2.25 mM) and the solubility ([1]; IPAc (10 V)) was 1000 µg/mL (≈ 2.5 mM). The solubility ([1]; MeOH (10 V)) was 37000 µg/mL (≈ 92.4 mM), the solubility ([1]; THF (10 V)) was 1200 µg/mL (≈ 3 mM) and the “stability in MeOH (conclusion of the solubility table)” value ([1]; MeOH) was “high stability”. For the same compound, the “solubility (conclusion)” value ([1]; other tested solvents (than MeOH)) was “lower solubility”.

Work on `COC(=O)CC[C@H](NC(=O)c1ccc(-n2ccnn2)cc1)C(=O)N1CCN(C)CC1` [Compound 3, methyl (4S)-4-[4-(1H-1,2,3-triazol-1-yl)benzoylamino]-5-(4-methylpiperazin-1-yl)-5-oxopentanoate] yielded a solubility ([1]; Acetonitrile (10 V)) of 29500 µg/mL (≈ 71.2 mM), a solubility ([1]; EtOAc (10 V)) of 9000 µg/mL (≈ 21.7 mM) and a solubility ([1]; EtOH (10 V)) of 22500 µg/mL (≈ 54.3 mM). It also gave a solubility ([1]; IPA (10 V)) of 14100 µg/mL (≈ 34 mM), a solubility ([1]; IPAc (10 V)) of 4800 µg/mL (≈ 11.6 mM) and a solubility ([1]; MTBE (10 V)) of 600 µg/mL (≈ 1.45 mM). For the same compound, the solubility ([1]; THF (10 V)) was 84200 µg/mL (≈ 203 mM), the “Solubility (mg/mL)” value ([1]; DCM (10 V)) was “Dissolved completely” and the “Solubility (mg/mL)” value ([1]; Heptane (10 V)) was “insoluble”. For the same compound, the “Solubility (mg/mL)” value ([1]; MeOH (10 V)) was “Dissolved completely”, the “solubility (conclusion)” value ([1]; in DCM, THF or MeOH) was “good solubility” and the Assay ([2]; 1.0 g, pH 9-10 with 6M LiOH aqueous solution, 0 h) was 1.0 g. It also gave an Assay ([2]; 1.0 g, pH 9-10 with 6M LiOH aqueous solution, +10 h) of 1.0 g, an Assay ([2]; 1.0 g, pH 9-10 with 6M LiOH aqueous solution, +24 h (first)) of 1.0 g and an Assay ([2]; 1.0 g, pH 9-10 with 6M LiOH aqueous solution, +24 h (second)) of 1.0 g. The Assay ([2]; 1.0 g, pH 9-10 with 10 wt. % K2CO3 aqueous solution, 0 h) was 1.0 g, the Assay ([2]; 1.0 g, pH 9-10 with 10 wt. % K2CO3 aqueous solution, +10 h) was 0.90 g and the Assay ([2]; 1.0 g, pH 9-10 with 10 wt. % K2CO3 aqueous solution, +24 h (first)) was 0.87 g. For the same compound, the Assay ([2]; 1.0 g, pH 9-10 with 10 wt. % K2CO3 aqueous solution, +24 h (second)) was 0.87 g, the Assay ([2]; 1.0 g, pH 9-10 with 10 wt. % Na2CO3 aqueous solution, 0 h) was 1.0 g and the Assay ([2]; 1.0 g, pH 9-10 with 10 wt. % Na2CO3 aqueous solution, +10 h) was 0.99 g. It also gave an Assay ([2]; 1.0 g, pH 9-10 with 10 wt. % Na2CO3 aqueous solution, +24 h (first)) of 0.97 g, an Assay ([2]; 1.0 g, pH 9-10 with 10 wt. % Na2CO3 aqueous solution, +24 h (second)) of 0.99 g and an Assay ([2]; 1.0 g, pH 9-10 with 10 wt. % NaOH aqueous solution, 0 h) of 1.0 g. For the same compound, the Assay ([2]; 1.0 g, pH 9-10 with 10 wt. % NaOH aqueous solution, +10 h) was 1.0 g, the Assay ([2]; 1.0 g, pH 9-10 with 10 wt. % NaOH aqueous solution, +24 h (first)) was 1.0 g and the Assay ([2]; 1.0 g, pH 9-10 with 10 wt. % NaOH aqueous solution, +24 h (second)) was 1.0 g. It also gave an Assay ([2]; 1.1 g, pH 10-11 with NaOH aqueous solution (6N), 0 h) of 0.7 g, an Assay ([2]; 1.1 g, pH 10-11 with NaOH aqueous solution (6N), +7 h (after +20 h)) of 0.4 g and an Assay ([2]; 1.1 g, pH 10-11 with NaOH aqueous solution (6N), +20 h) of 0.5 g. The Assay ([2]; 1.1 g, pH 10-11 with NaOH aqueous solution (6N), +24 h (first, after +7 h)) was 0.3 g, the Assay ([2]; 1.1 g, pH 10-11 with NaOH aqueous solution (6N), +24 h (second)) was 0.2 g and the “stability (conclusion)” value ([2]; in the presence of K2CO3) was “relatively instable”. For the same compound, the “stability (conclusion)” value ([2]; pH>10 in basic aqueous solution) was “not stable” and the “stability (conclusion)” value ([2]; weak basic aqueous solution, pH=9-10) was “relatively stable”.

With `CCCCCCCCCCCCSC(=O)CC[C@H](NC(=O)c1ccc(-n2ccnn2)cc1)C(=O)N1CCN(C)CC1` [Compound 5a, dodecyl (4S)-4-[4-(1H-1,2,3-triazol-1-yl)benzoylamino]-5-(4-methyl-piperazin-1-yl)-5-oxopentanethioate Hydrochloride Salt] the “Result (solubility)” value ([3]; DMSO (20 V)) was “Soluble” and the “Result (solubility)” value ([3]; NMP (20 V)) was “Soluble”.
